Test results taken from US11259522B2, “Control of resistant pests” (priority 2017, dated 2022).
Several values for one entry are separate records, joined by “and”; a condition that tells them apart may be missing. Equal entries are not always repeated.

How the values were obtained:
[1] = test system: Tribolium castaneum strain QTC279 (resistant to malathion and bioresmethrin); assay: Grain protectant bioassay on treated wheat, T. castaneum resistant; format: in vivo; conditions: for Progeny reduction (%): vs untreated control
[2] = test system: Rhyzopertha dominica strain QRD1440 (resistant to OP protectants and pyrethroids); assay: Grain protectant bioassay on treated wheat, resistant lesser grain borer; conditions: for Live adult progeny: mean ± SE; for Progeny reduction (%): vs untreated control
[3] = Example 6, QRD1440, 25 ppm on wheat, replicates A, B, C
[4] = Example 6, QRD1440, 50 ppm on wheat, replicates A, B, C
[5] = Example 6, QRD1440, 75 ppm on wheat, replicates A, B, C
[6] = Example 7, QRD1440, 60 ppm on wheat, replicates A, B, C
[7] = Rhyzopertha dominica, in Triticum aestivum, 336 h, read-out: Adult mortality (%)

CC(C)C(=O)C1C(=O)C(C)(C)C(=O)C(C)(C)C1=O [Flavesone, 1-isobutyroyl-3,3,5,5-tetramethylcyclohexane-2,4,6-trione]
Live adult progeny ([1]; 25 mg/kg, mean ± SE): 265.3 ± 27.7 | Progeny reduction (%) ([1]; 25 mg/kg): 17.4% | Live adult progeny ([1]; 60 mg/kg, mean ± SE): 204.3 ± 27.8 | Progeny reduction (%) ([1]; 60 mg/kg): 36.4% | Progeny reduction (%) ([1]; 60 mg/kg, listed as flavesone): 36% | mortality at 25 mg/kg ([1]; Tribolium castaneum, 336 h, 25 mg/kg, 2 weeks, mean ± SE, read-out: Adult mortality (%)): 0% | mortality at 60 mg/kg ([1]; Tribolium castaneum, 336 h, 60 mg/kg, 2 weeks, mean ± SE, read-out: Adult mortality (%)): 0% | F1 Progeny count No. dead/total ([2]; Example 5, QRD1440, 25 ppm on wheat, further 6 weeks, replicates A, B, C): 0/37 and 0/62 and 0/90 | 14 Day adult mortality No. dead (total) ([2]; Example 5, QRD1440, 25 ppm on wheat, replicates A, B, C): 19/50 and 11/50 and 14/50 | 14 day Adult Mortality No. dead/total [2, 3]: 22/50 and 21/50 and 30/50 | F1 Progeny count No. dead/total [2, 3]: 0/20 (2×) and 0/5 | 14 day Adult Mortality No. dead/total [2, 4]: 47/50 (2×) and 49/50 | F1 Progeny count No. dead/total [2, 4]: 0/0 | 14 day Adult Mortality No. dead/total [2, 5]: 50/50 | F1 Progeny count No. dead/total [2, 5]: 0/0 | 14 day Adult Mortality No. dead/total [2, 6]: 50/50 | F1 Progeny count No. dead/total [2, 6]: 0/0 | Live adult progeny ([2]; QRD1440, 25 mg/kg): 23.7 ± 9.0 | Progeny reduction (%) ([2]; QRD1440, 25 mg/kg): 88.8% | Progeny reduction (%) ([2]; QRD1440, 25 mg/kg, listed as flavesone): 88% | Live adult progeny ([2]; QRD1440, 60 mg/kg): 0.0 ± 0.0 | Progeny reduction (%) ([2]; QRD1440, 60 mg/kg): 100% | mortality at 25 mg/kg [2, 7]: 56.7 ± 4.1% | mortality at 60 mg/kg [2, 7]: 100%
